Results taken from PMC10412597, “Small molecule branched-chain ketoacid dehydrogenase kinase (BDK) inhibitors with opposing effects on BDK protein levels” (Nature Communications, 2023).

Experiments:
Parameters in all cases: Invitrogen kinase panel, per cent inhibition of kinase activity
[1] = target: SRC (Homo sapiens, UniProt P12931); conditions: 10 µM, inhibitor
Procedure: (§1) To discover a potent and selective BDK inhibitor, a subset of the Pfizer compound collection was screened. […] Off target activity was assessed in both CEREP and kinase panels (Supplementary Tables 2, 3).

[2] = target: PI4KA (Homo sapiens, UniProt P42356); conditions: inhibitor
Procedure: as §1

[3] = target: EPHA2 (Homo sapiens, UniProt P29317); conditions: 10 µM, inhibitor
Procedure: as §1

[4] = target: BTK (Homo sapiens, UniProt Q06187); conditions: 10 µM, inhibitor
Procedure: as §1

[5] = target: T1, JNK2 (Homo sapiens, UniProt P45984); conditions: 10 µM, inhibitor
T1 construct: gene MAPK9
Procedure: as §1

[6] = target: T2, PDPK1 (Homo sapiens, UniProt O15530); conditions: 10 µM, inhibitor
T2 sequence (O15530 1-556): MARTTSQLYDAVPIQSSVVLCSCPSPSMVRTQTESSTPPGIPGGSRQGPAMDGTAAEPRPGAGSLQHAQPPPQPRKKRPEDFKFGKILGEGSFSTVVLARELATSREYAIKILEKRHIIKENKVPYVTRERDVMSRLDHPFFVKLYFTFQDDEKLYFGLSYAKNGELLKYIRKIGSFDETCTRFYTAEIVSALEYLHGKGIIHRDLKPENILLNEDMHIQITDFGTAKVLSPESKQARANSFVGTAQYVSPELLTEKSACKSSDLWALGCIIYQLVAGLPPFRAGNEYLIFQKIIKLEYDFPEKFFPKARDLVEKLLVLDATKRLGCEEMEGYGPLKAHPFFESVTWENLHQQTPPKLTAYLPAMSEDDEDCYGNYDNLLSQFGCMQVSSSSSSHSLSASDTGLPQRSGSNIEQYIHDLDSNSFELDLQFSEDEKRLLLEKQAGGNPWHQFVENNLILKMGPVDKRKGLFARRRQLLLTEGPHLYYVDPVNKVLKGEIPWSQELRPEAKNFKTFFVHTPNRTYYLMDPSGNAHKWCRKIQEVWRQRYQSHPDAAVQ
Procedure: as §1

[7] = target: CDK2/Cyclin-A (Homo sapiens, UniProt P24941); conditions: 10 µM, inhibitor
Procedure: as §1

[8] = target: AURKB (Homo sapiens, UniProt Q96GD4); conditions: 10 µM, inhibitor
Sequence of AURKB (Q96GD4 whole entry): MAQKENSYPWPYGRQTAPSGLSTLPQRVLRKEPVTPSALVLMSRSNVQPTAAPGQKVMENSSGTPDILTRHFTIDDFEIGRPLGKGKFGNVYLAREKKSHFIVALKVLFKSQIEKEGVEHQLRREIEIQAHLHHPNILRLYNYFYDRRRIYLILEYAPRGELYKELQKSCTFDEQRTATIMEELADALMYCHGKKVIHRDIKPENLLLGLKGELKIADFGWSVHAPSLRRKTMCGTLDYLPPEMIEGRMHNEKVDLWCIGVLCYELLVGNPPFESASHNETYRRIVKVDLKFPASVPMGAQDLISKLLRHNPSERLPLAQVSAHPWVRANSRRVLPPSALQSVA
Procedure: as §1

[9] = target: GSK3B (Homo sapiens, UniProt P49841); conditions: 10 µM, inhibitor
Procedure: as §1

[10] = target: SPHK1 (Homo sapiens, UniProt Q9NYA1); conditions: 10 µM, inhibitor
Procedure: as §1

[11] = target: MYLK2 (Homo sapiens, UniProt Q9H1R3); conditions: 10 µM, inhibitor
Procedure: as §1

[12] = target: T3, Rsk1 (Homo sapiens, UniProt Q15418); conditions: 10 µM, inhibitor
T3 construct: gene RPS6KA1
Procedure: as §1

[13] = target: KDR (Homo sapiens, UniProt P35968); conditions: 10 µM, inhibitor
Sequence of KDR (P35968 whole entry): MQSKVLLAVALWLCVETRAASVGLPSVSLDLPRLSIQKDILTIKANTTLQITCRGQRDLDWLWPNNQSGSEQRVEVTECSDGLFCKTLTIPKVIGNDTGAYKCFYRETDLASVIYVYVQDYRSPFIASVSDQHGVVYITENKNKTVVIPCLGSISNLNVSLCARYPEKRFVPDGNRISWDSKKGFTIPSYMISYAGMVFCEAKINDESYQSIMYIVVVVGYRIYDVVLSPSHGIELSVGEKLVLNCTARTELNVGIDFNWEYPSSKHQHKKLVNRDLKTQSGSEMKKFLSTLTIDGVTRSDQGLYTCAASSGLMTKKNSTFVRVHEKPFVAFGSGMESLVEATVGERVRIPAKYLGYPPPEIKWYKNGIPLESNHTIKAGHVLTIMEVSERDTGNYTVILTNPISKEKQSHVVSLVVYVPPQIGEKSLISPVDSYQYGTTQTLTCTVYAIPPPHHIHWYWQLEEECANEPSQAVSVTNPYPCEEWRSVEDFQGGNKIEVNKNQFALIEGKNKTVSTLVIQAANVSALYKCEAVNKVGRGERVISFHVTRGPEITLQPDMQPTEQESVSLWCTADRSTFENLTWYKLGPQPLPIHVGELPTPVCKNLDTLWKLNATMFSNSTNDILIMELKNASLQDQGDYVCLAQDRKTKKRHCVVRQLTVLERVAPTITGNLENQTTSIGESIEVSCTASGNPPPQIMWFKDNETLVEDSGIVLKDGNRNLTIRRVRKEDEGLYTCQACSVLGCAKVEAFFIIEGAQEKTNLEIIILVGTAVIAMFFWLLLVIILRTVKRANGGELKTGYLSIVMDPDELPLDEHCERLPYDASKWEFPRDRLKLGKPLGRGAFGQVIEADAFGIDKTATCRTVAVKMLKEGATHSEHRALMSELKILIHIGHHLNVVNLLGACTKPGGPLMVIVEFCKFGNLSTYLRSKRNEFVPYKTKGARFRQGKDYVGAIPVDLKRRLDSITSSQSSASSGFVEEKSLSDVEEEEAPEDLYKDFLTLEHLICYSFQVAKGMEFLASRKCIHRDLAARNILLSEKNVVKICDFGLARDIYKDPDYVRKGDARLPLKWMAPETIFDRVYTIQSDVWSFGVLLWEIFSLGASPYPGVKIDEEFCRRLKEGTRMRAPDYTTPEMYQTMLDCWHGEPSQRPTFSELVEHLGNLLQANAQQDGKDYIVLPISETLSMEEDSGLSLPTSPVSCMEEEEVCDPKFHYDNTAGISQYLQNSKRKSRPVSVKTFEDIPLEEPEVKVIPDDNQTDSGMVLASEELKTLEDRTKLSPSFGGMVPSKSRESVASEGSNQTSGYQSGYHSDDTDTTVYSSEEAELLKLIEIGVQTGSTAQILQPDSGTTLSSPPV
Procedure: as §1

[14] = target: TEK (Homo sapiens, UniProt Q02763); conditions: 10 µM, inhibitor
Sequence of TEK (Q02763 whole entry): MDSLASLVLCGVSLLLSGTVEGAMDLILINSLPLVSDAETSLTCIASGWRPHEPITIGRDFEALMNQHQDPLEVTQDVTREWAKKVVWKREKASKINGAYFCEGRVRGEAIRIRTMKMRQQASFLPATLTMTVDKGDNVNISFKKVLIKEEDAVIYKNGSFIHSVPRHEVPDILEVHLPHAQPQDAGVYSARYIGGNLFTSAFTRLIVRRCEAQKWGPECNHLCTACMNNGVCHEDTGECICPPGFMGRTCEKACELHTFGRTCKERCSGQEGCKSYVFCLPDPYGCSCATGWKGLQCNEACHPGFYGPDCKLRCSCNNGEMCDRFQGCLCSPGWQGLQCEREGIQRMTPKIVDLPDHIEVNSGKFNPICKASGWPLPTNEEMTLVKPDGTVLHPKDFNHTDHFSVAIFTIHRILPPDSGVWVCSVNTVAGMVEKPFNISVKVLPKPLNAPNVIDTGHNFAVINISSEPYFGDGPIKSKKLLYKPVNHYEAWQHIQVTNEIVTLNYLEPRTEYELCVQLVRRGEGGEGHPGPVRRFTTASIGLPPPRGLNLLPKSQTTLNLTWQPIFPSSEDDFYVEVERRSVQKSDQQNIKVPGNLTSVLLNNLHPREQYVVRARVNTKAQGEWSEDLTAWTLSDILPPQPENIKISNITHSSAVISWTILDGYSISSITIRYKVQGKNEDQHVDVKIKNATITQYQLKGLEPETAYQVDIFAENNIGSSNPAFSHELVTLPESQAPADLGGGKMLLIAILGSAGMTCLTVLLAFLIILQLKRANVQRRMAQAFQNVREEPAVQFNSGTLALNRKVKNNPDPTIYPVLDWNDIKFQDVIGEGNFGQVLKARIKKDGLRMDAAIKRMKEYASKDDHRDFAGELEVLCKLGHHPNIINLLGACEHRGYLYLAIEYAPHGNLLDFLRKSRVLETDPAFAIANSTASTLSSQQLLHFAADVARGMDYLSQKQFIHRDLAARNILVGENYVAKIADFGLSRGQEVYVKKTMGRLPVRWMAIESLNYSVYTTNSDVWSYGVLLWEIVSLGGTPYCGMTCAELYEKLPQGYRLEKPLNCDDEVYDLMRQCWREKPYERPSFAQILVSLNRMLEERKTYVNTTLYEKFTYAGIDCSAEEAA
Procedure: as §1

[15] = target: CAMK2A (Homo sapiens, UniProt Q9UQM7); conditions: 10 µM, inhibitor
Procedure: as §1

[16] = target: T4, Rsk2 (Homo sapiens, UniProt P51812); conditions: 10 µM, inhibitor
T4 construct: gene RPS6KA3
Procedure: as §1

[17] = target: CSNK2A2 (Homo sapiens, UniProt P19784); conditions: 10 µM, inhibitor
Sequence of CSNK2A2 (P19784 whole entry): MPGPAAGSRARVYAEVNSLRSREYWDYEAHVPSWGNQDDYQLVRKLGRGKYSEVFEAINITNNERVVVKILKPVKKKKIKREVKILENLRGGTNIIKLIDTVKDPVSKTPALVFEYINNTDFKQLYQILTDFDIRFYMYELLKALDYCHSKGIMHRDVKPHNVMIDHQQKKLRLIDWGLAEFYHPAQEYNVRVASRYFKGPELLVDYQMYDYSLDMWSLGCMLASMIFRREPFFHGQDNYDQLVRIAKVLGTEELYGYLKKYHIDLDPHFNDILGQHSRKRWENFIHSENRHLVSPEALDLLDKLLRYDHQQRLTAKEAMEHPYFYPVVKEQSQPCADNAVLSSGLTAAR
Procedure: as §1

[18] = target: HCK (Homo sapiens, UniProt P08631); conditions: 10 µM, inhibitor
Procedure: as §1

[19] = target: INSR (Homo sapiens, UniProt P06213); conditions: 10 µM, inhibitor
Sequence of INSR (P06213 whole entry): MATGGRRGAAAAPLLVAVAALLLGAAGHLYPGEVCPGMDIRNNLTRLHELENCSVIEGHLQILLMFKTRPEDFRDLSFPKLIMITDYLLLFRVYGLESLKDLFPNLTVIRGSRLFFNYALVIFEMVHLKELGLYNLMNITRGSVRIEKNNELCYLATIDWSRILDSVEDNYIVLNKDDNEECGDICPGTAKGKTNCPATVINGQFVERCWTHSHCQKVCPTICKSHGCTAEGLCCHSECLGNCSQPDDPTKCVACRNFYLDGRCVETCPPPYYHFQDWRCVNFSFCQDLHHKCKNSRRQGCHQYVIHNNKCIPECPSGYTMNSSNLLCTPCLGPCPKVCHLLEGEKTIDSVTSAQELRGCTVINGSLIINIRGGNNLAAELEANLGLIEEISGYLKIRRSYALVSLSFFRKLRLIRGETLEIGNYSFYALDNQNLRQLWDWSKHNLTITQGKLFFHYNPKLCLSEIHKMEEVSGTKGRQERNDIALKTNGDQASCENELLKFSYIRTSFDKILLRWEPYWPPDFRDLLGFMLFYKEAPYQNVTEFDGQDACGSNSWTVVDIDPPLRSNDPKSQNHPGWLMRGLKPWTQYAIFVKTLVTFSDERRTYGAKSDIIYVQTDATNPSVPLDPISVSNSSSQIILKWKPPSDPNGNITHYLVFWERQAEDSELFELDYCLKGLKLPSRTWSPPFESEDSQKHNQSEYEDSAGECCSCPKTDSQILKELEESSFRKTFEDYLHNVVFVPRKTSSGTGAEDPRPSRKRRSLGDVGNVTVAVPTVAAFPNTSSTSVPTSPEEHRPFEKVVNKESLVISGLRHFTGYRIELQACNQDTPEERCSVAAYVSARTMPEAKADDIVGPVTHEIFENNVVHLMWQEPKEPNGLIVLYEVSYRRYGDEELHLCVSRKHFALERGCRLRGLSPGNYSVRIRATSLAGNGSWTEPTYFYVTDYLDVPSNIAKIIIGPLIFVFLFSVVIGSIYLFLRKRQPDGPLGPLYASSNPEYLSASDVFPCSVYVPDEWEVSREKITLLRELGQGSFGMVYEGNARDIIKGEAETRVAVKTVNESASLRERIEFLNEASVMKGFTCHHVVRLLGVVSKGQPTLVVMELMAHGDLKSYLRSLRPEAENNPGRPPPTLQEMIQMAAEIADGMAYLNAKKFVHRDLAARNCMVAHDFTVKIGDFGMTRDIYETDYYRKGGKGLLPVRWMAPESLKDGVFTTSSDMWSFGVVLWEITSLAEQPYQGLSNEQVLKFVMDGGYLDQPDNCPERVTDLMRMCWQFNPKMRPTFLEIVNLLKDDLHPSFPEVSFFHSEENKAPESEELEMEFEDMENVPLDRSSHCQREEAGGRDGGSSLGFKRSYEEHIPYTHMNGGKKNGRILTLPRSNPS
Procedure: as §1

[20] = target: NTRK1 (Homo sapiens, UniProt P04629); conditions: 10 µM, inhibitor
Procedure: as §1

[21] = target: T5, JNK1 (Homo sapiens, UniProt P45983); conditions: 10 µM, inhibitor
T5 construct: gene MAPK8
Procedure: as §1

[22] = target: NUAK1 (Homo sapiens, UniProt O60285); conditions: 10 µM, inhibitor
Procedure: as §1

Sequence of SRC (P12931 whole entry): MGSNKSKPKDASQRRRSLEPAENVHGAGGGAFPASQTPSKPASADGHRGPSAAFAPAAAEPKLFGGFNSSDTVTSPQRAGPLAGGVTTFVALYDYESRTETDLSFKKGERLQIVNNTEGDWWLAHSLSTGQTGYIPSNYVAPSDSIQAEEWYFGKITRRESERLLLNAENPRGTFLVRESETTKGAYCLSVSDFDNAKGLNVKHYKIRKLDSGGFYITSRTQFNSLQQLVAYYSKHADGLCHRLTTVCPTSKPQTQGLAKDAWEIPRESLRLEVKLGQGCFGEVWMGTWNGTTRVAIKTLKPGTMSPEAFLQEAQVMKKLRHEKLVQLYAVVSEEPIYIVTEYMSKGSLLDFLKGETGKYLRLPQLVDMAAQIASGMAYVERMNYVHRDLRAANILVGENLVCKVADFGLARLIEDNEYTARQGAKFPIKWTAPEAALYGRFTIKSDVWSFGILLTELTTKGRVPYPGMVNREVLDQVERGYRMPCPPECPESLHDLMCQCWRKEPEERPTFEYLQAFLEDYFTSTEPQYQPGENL

Q: Which “ATP = 1 mM % Inhibition PF-07208254” value [1] does the source give for `O=C(O)c1sc2cc(F)sc2c1Cl` [PF-07208254, 3-chloro-5-fluorothieno[3,2-b]thiophene-2-carboxylic acid] here?
A: -4.8%

Q: What about the “ATP = Km % Inhibition PF-07208254” value [1] of the same compound?
A: 5.6%

Q: What about the “ATP = 10 uM % Inhibition PF-07208254” value [2] of the same compound?
A: 8.2%

Q: What about the “ATP = 1 mM % Inhibition PF-07208254” value [3] of the same compound?
A: -5.6%

Q: And the “ATP = Km % Inhibition PF-07208254” value [3]?
A: 0.5%

Q: And the “ATP = 1 mM % Inhibition PF-07208254” value [4]?
A: 0.8%

Q: And the “ATP = Km % Inhibition PF-07208254” value [4]?
A: 5.9%

Q: And the “ATP = 100 uM % Inhibition PF-07208254” value [5]?
A: -3.0%

Q: What about the “ATP = 1 mM % Inhibition PF-07208254” value [6] of the same compound?
A: -3.1%

Q: What about the “ATP = Km % Inhibition PF-07208254” value [6] of the same compound?
A: -3.2%

Q: And the “ATP = 1 mM % Inhibition PF-07208254” value [7]?
A: -1.2%

Q: And the “ATP = Km % Inhibition PF-07208254” value [7]?
A: 14.6%

Q: And the “ATP = Km % Inhibition PF-07208254” value [8]?
A: 3.0%

Q: What about the “ATP = 1 mM % Inhibition PF-07208254” value [9] of the same compound?
A: 0.7%

Q: What about the “ATP = Km % Inhibition PF-07208254” value [9] of the same compound?
A: 9.7%

Q: What about the “ATP = Km % Inhibition PF-07208254” value [10] of the same compound?
A: -15.9%

Q: And the “ATP = 1 mM % Inhibition PF-07208254” value [11]?
A: -0.1%

Q: And the “ATP = Km % Inhibition PF-07208254” value [11]?
A: -3.6%

Q: What about the “ATP = Km % Inhibition PF-07208254” value [12] of the same compound?
A: 3.3%

Q: What about the “ATP = 1 mM % Inhibition PF-07208254” value [13] of the same compound?
A: 5.6%

Q: And the “ATP = Km % Inhibition PF-07208254” value [13]?
A: 1.1%

Q: And the “ATP = 1 mM % Inhibition PF-07208254” value [14]?
A: 0.7%

Q: What about the “ATP = Km % Inhibition PF-07208254” value [14] of the same compound?
A: 0.3%

Q: And the “ATP = 1 mM % Inhibition PF-07208254” value [15]?
A: -0.3%

Q: And the “ATP = Km % Inhibition PF-07208254” value [15]?
A: 6.8%

Q: What about the “ATP = Km % Inhibition PF-07208254” value [16] of the same compound?
A: -0.7%

Q: And the “ATP = 1 mM % Inhibition PF-07208254” value [17]?
A: 7.3%

Q: And the “ATP = Km % Inhibition PF-07208254” value [17]?
A: 24.5%

Q: What about the “ATP = Km % Inhibition PF-07208254” value [18] of the same compound?
A: 9.9%

Q: What about the “ATP = 1 mM % Inhibition PF-07208254” value [19] of the same compound?
A: 0.0%

Q: What about the “ATP = Km % Inhibition PF-07208254” value [19] of the same compound?
A: 3.1%

Q: And the “ATP = 1 mM % Inhibition PF-07208254” value [20]?
A: 5.8%

Q: What about the “ATP = Km % Inhibition PF-07208254” value [20] of the same compound?
A: 5.6%

Q: And the “ATP = 100 uM % Inhibition PF-07208254” value [21]?
A: -0.6%

Q: And the “ATP = Km % Inhibition PF-07208254” value [22]?
A: 10.3%

Q: For `CCC1(COc2ccc(-c3csc(-c4ccccc4C(=O)O)n3)cn2)CC1` [PF-07247685, 2-(4-{6-[(1-ethylcyclopropyl)methoxy]pyridin-3-yl}-1,3-thiazol-2-yl)benzoic acid], which “ATP = 1 mM % Inhibition PF-07247685” value [1] is on record?
A: -1.0%

Q: And the “ATP = Km % Inhibition PF-07247685” value [1]?
A: 17.3%

Q: What about the “ATP = 10 uM % Inhibition PF-07247685” value [2] of the same compound?
A: -3.1%

Q: And the “ATP = 1 mM % Inhibition PF-07247685” value [3]?
A: 5.6%

Q: And the “ATP = Km % Inhibition PF-07247685” value [3]?
A: 0.6%

Q: What about the “ATP = 1 mM % Inhibition PF-07247685” value [4] of the same compound?
A: 3.1%

Q: And the “ATP = Km % Inhibition PF-07247685” value [4]?
A: -0.7%

Q: And the “ATP = 100 uM % Inhibition PF-07247685” value [5]?
A: 4.3%

Q: And the “ATP = 1 mM % Inhibition PF-07247685” value [6]?
A: 2.0%

Q: And the “ATP = Km % Inhibition PF-07247685” value [6]?
A: -0.6%

Q: And the “ATP = 1 mM % Inhibition PF-07247685” value [7]?
A: -1.4%

Q: What about the “ATP = Km % Inhibition PF-07247685” value [7] of the same compound?
A: 1.2%

Q: And the “ATP = Km % Inhibition PF-07247685” value [8]?
A: 17.3%

Q: What about the “ATP = 1 mM % Inhibition PF-07247685” value [9] of the same compound?
A: 3.7%

Q: What about the “ATP = Km % Inhibition PF-07247685” value [9] of the same compound?
A: 11.0%

Q: What about the “ATP = Km % Inhibition PF-07247685” value [10] of the same compound?
A: -82.5%

Q: What about the “ATP = 1 mM % Inhibition PF-07247685” value [11] of the same compound?
A: 1.7%

Q: What about the “ATP = Km % Inhibition PF-07247685” value [11] of the same compound?
A: 1.4%

Q: What about the “ATP = Km % Inhibition PF-07247685” value [12] of the same compound?
A: 2.4%

Q: What about the “ATP = 1 mM % Inhibition PF-07247685” value [13] of the same compound?
A: 0.1%

Q: What about the “ATP = Km % Inhibition PF-07247685” value [13] of the same compound?
A: 2.0%

Q: And the “ATP = 1 mM % Inhibition PF-07247685” value [14]?
A: 8.6%

Q: What about the “ATP = Km % Inhibition PF-07247685” value [14] of the same compound?
A: 0.6%

Q: What about the “ATP = 1 mM % Inhibition PF-07247685” value [15] of the same compound?
A: 3.5%

Q: And the “ATP = Km % Inhibition PF-07247685” value [15]?
A: 2.8%

Q: And the “ATP = Km % Inhibition PF-07247685” value [16]?
A: -1.6%

Q: What about the “ATP = 1 mM % Inhibition PF-07247685” value [17] of the same compound?
A: 1.9%

Q: What about the “ATP = Km % Inhibition PF-07247685” value [17] of the same compound?
A: 7.5%

Q: What about the “ATP = Km % Inhibition PF-07247685” value [18] of the same compound?
A: 4.5%

Q: And the “ATP = 1 mM % Inhibition PF-07247685” value [19]?
A: -0.4%

Q: And the “ATP = Km % Inhibition PF-07247685” value [19]?
A: 3.4%

Q: And the “ATP = 1 mM % Inhibition PF-07247685” value [20]?
A: 10.0%

Q: And the “ATP = Km % Inhibition PF-07247685” value [20]?
A: 14.5%

Q: What about the “ATP = 100 uM % Inhibition PF-07247685” value [21] of the same compound?
A: 2.1%

Q: What about the “ATP = Km % Inhibition PF-07247685” value [22] of the same compound?
A: -18.2%
